# Key:
# Assay type in all cases: cell-based
# H. flu = test system: H. flu
# E. faecalis = experiment: MIC values, E. faecalis (Tables 1-4)
# S. pneumo. = experiment: MIC values, S. pneumo. (Tables 1-4)
# S. aureus = experiment: MIC values, S. aureus (Tables 1-4)
# E. coli = experiment: MIC values, E. coli (Tables 1-4)
Compound,MIC H. flu (H. flu) [µg/mL],MIC E. faecalis (E. faecalis) [µg/mL],MIC S. pneumo. (S. pneumo.) [µg/mL],MIC S. aureus (S. aureus) [µg/mL],MIC E. coli (E. coli) [µg/mL]
CCOc1c(N2CCN(CC3CC3)CC2)ccc2nc3c4c5c6c(C)c(O)c4c(=O)c(c-3oc12)NC(=O)/C(C)=C\C=C\[C@H](C)[C@H](O)[C@@H](C)[C@@H](O)[C@@H](C)[C@H](O)[C@H](C)[C@@H](OC)/C=C/O[C@@](C)(O6)C5=O [Compound 108],1,0.5,0.015,0.03,>8
CO[C@H]1/C=C/O[C@@]2(C)Oc3c(C)c(O)c4c(=O)c(c5oc6c(F)c(N7CCN(CC(C)C)CC7)ccc6nc-5c4c3C2=O)NC(=O)/C(C)=C\C=C\[C@H](C)[C@H](O)[C@@H](C)[C@@H](O)[C@@H](C)[C@H](O)[C@@H]1C [Compound 109],0.5,0.5,0.008,0.03,8
CO[C@H]1/C=C/O[C@@]2(C)Oc3c(C)c(O)c4c(=O)c(c5oc6cc(N7CCN(C(=O)C8CC8)CC7)cc(O)c6nc-5c4c3C2=O)NC(=O)/C(C)=C\C=C\[C@H](C)[C@H](O)[C@@H](C)[C@@H](O)[C@@H](C)[C@H](O)[C@@H]1C [Compound 110],0.25,0.5,0.004,0.015,8
CCc1cc2nc3c4c5c6c(C)c(O)c4c(=O)c(c-3oc2cc1N1CCCCC1)NC(=O)/C(C)=C\C=C\[C@H](C)[C@H](O)[C@@H](C)[C@@H](O)[C@@H](C)[C@H](O)[C@H](C)[C@@H](OC)/C=C/O[C@@](C)(O6)C5=O [Compound 111],2,4,0.12,1,1
CO[C@H]1/C=C/O[C@@]2(C)Oc3c(C)c(O)c4c(=O)c(c5oc6cc(N7CCC(C(N)=O)CC7)cc(O)c6nc-5c4c3C2=O)NC(=O)/C(C)=C\C=C\[C@H](C)[C@H](O)[C@@H](C)[C@@H](O)[C@@H](C)[C@H](O)[C@@H]1C [Compound 112],0.25,1,0.002,0.03,>8
CCOC(=O)C1CCN(c2cc(O)c3nc4c5c6c7c(C)c(O)c5c(=O)c(c-4oc3c2)NC(=O)/C(C)=C\C=C\[C@H](C)[C@H](O)[C@@H](C)[C@@H](O)[C@@H](C)[C@H](O)[C@H](C)[C@@H](OC)/C=C/O[C@@](C)(O7)C6=O)CC1 [Compound 113],0.12,0.5,0.008,0.004,>8
CO[C@H]1/C=C/O[C@@]2(C)Oc3c(C)c(O)c4c(=O)c(c5oc6cc(N7CCC(F)CC7)ccc6nc-5c4c3C2=O)NC(=O)/C(C)=C\C=C\[C@H](C)[C@H](O)[C@@H](C)[C@@H](O)[C@@H](C)[C@H](O)[C@@H]1C [Compound 114],0.12,0.5,0.008,0.03,8
CO[C@H]1/C=C/O[C@@]2(C)Oc3c(C)c(O)c4c(=O)c(c5oc6cc(N7CCC(F)(F)CC7)ccc6nc-5c4c3C2=O)NC(=O)/C(C)=C\C=C\[C@H](C)[C@H](O)[C@@H](C)[C@@H](O)[C@@H](C)[C@H](O)[C@@H]1C [Compound 115],0.25,1,0.015,0.03,>8
CO[C@H]1/C=C/O[C@@]2(C)Oc3c(C)c(O)c4c(=O)c(c5oc6cc(N7CCCC7)c(C7CCCCC7)cc6nc-5c4c3C2=O)NC(=O)/C(C)=C\C=C\[C@H](C)[C@H](O)[C@@H](C)[C@@H](O)[C@@H](C)[C@H](O)[C@@H]1C [Compound 118],8,>8,0.25,2,>8
CO[C@H]1/C=C/O[C@@]2(C)Oc3c(C)c(O)c4c(=O)c(c5oc6c(C)c(N7CCCC7)cc(C)c6nc-5c4c3C2=O)NC(=O)/C(C)=C\C=C\[C@H](C)[C@H](O)[C@@H](C)[C@@H](O)[C@@H](C)[C@H](O)[C@@H]1C [Compound 119],2,2,0.5,0.5,>8
CO[C@H]1/C=C/O[C@@]2(C)Oc3c(C)c(O)c4c(=O)c(c5oc6cc(N7CCCC7)c(C)c(C)c6nc-5c4c3C2=O)NC(=O)/C(C)=C\C=C\[C@H](C)[C@H](O)[C@@H](C)[C@@H](O)[C@@H](C)[C@H](O)[C@@H]1C [Compound 120],1,4,0.06,0.5,>8
COc1c(N2CCCC2)cc(C)c2nc3c4c5c6c(C)c(O)c4c(=O)c(c-3oc12)NC(=O)/C(C)=C\C=C\[C@H](C)[C@H](O)[C@@H](C)[C@@H](O)[C@@H](C)[C@H](O)[C@H](C)[C@@H](OC)/C=C/O[C@@](C)(O6)C5=O [Compound 121],0.12,2,0.03,0.06,8
CO[C@H]1/C=C/O[C@@]2(C)Oc3c(C)c(O)c4c(=O)c(c5oc6cc(N7CCCC7)c(F)cc6nc-5c4c3C2=O)NC(=O)/C(C)=C\C=C\[C@H](C)[C@H](O)[C@@H](C)[C@@H](O)[C@@H](C)[C@H](O)[C@@H]1C [Compound 123],0.12,1,0.06,0.03,8
CO[C@H]1/C=C/O[C@@]2(C)Oc3c(C)c(O)c4c(=O)c(c5oc6cc(N7CCCN(C)CC7)cc(O)c6nc-5c4c3C2=O)NC(=O)/C(C)=C\C=C\[C@H](C)[C@H](O)[C@@H](C)[C@@H](O)[C@@H](C)[C@H](O)[C@@H]1C [Compound 124],0.25,0.03,0.00012,0.004,4
CO[C@H]1/C=C/O[C@@]2(C)Oc3c(C)c(O)c4c(=O)c(c5sc6cc(N7CCCN(C)CC7)ccc6nc-5c4c3C2=O)NC(=O)/C(C)=C\C=C\[C@H](C)[C@H](O)[C@@H](C)[C@@H](O)[C@@H](C)[C@H](O)[C@@H]1C [Compound 125],0.12,0.25,0.00025,0.002,2
CO[C@H]1/C=C/O[C@@]2(C)Oc3c(C)c(O)c4c(=O)c(c5oc6c(C)c(N7CCC7)cc(C)c6nc-5c4c3C2=O)NC(=O)/C(C)=C\C=C\[C@H](C)[C@H](O)[C@@H](C)[C@@H](O)[C@@H](C)[C@H](O)[C@@H]1C [Compound 126],0.25,1,0.004,0.03,8
CO[C@H]1/C=C/O[C@@]2(C)Oc3c(C)c(O)c4c(=O)c(c5oc6cc(N(C)CC(C)C)cc(O)c6nc-5c4c3C2=O)NC(=O)/C(C)=C\C=C\[C@H](C)[C@H](O)[C@@H](C)[C@@H](O)[C@@H](C)[C@H](O)[C@@H]1C [Compound 128],0.5,0.5,0.002,0.015,>8
CO[C@H]1/C=C/O[C@@]2(C)Oc3c(C)c(O)c4c(=O)c(c5oc6cc(N(C)C7CCN(C)CC7)cc(O)c6nc-5c4c3C2=O)NC(=O)/C(C)=C\C=C\[C@H](C)[C@H](O)[C@@H](C)[C@@H](O)[C@@H](C)[C@H](O)[C@@H]1C [Compound 129],0.25,0.5,0.00025,0.004,4
CO[C@H]1/C=C/O[C@@]2(C)Oc3c(C)c(O)c4c(=O)c(c5oc6cc(N(C)CCC#N)ccc6nc-5c4c3C2=O)NC(=O)/C(C)=C\C=C\[C@H](C)[C@H](O)[C@@H](C)[C@@H](O)[C@@H](C)[C@H](O)[C@@H]1C [Compound 130],0.12,0.5,0.008,0.06,8

# From patent publication US20070142392A1, “Uses of rifamycins” (ActivBiotics, Inc., priority 2005, published 2007)
